Measured values published in article PMC10999085, “Synthesis, anticancer evaluation, molecular docking and ADME study of novel pyrido[4ʹ,3ʹ:3,4]pyrazolo[1,5-a]pyrimidines as potential tropomyosin receptor kinase A (TrKA) inhibitors” (BMC Chemistry, 2024).
Converted amounts (≈) assume the structure as drawn.

Assays:
HCT-116 cell line = assay: MTT assay, HCT-116 cell line; format: cell-based, human; details: for Cytotoxicity at 5 µg/l: HCT116, 5 µg/l; for Cytotoxicity at 5 µg/l / Cytotoxicity at 10 µg/l / Cytotoxicity at 20 µg/l: MTT, 24 hr treatment, in % (unit assumed); for Cytotoxicity at 10 µg/l: HCT116, 10 µg/l; for Cytotoxicity at 20 µg/l: HCT116, 20 µg/l
Protocol: (§1) Determination of the inhibitory effects of compounds on cell growth was performed through the MTT assay. This colorimetric assay is based on the conversion of the yellow tetrazolium bromide (MTT) to a purple formazan derivative by mitochondrial succinate dehydrogenase in viable cells. The protocol was discussed in details in Additional file 1.
(§2) Compounds 1, 4a,b, 7a–c, 7k, l, 9a–c, 14a, 15b, 16a–c were selected to be investigated against three human cancer cell lines MCF7, HepG2 and HCT116 cell lines using MTT assay using doxorubicin as the standard drug. Each point is the mean ± SD (standard deviation) of three independent experiments performed in triplicate, using the prism software program (integrated Graphpad software, version 3).
(§3) Cell lines were used to measure the cell growth effects of the compounds using the MTT assay. This colorimetric assay is depend on the conversion of the yellow tetrazolium bromide (MTT) to a purple formazan derivative by mitochondrial succinate dehydrogenase in living cells. Cell lines were cultured in RPMI-1640 medium supplemented with 10% fetal bovine serum. The antibiotics added were 100 units/ml penicillin and 100 µg/ml streptomycin at 37 °C in a 5% CO2 incubator. Cell lines were seeded in a 96-well plates at a density of 1.0x10^4 cells/well and cultured at 37 °C for 48 h under 5% CO2. After incubation, the cells were treated with different concentrations of compounds and incubated for 24 hr. After 24 hr of drug treatment, 20 µl of MTT solution at 5 mg/ml was added to each well and incubated for 4 hr. 100 µl of dimethyl sulfoxide (DMSO) was added into each well to dissolve the purple formazan formed. The colorimetric assay was measured and recorded at absorbance of 570 nm using a plate reader (EXL 800, USA). Relative cell viability (%) was calculated as (A570 of treated sample/A570 of untreated sample) x 100 [36, 37].

HepG2 cell line = assay: MTT assay, HepG2 cell line; format: cell-based, human; details: MTT, 24 hr treatment, in % (unit assumed); for Cytotoxicity at 5 µg/l: HepG2, 5 µg/l; for Cytotoxicity at 10 µg/l: HepG2, 10 µg/l; for Cytotoxicity at 20 µg/l: HepG2, 20 µg/l
Protocol: as §1, §2, §3

MCF7 cell line = assay: MTT assay, MCF7 cell line; format: cell-based, human; details: 24 hr treatment, in % (unit assumed); for Cytotoxicity at 5 µg/l: MCF7, 5 µg/l; for Cytotoxicity at 10 µg/l: MCF7, 10 µg/l; for Cytotoxicity at 20 µg/l: MCF7, 20 µg/l
Protocol: as §1, §2, §3

[1] = biological target: T1, Tropomyosin receptor kinase A (TrKA) (Homo sapiens, UniProt P04629); assay: Tropomyosin receptor kinase A (TrKA) inhibitory assay (Kinase-Glo MAX kit); format: biochemical; details: in vitro kinase assay, recombinant TrkA
T1 construct: purchased
T1 sequence (P04629 33-796): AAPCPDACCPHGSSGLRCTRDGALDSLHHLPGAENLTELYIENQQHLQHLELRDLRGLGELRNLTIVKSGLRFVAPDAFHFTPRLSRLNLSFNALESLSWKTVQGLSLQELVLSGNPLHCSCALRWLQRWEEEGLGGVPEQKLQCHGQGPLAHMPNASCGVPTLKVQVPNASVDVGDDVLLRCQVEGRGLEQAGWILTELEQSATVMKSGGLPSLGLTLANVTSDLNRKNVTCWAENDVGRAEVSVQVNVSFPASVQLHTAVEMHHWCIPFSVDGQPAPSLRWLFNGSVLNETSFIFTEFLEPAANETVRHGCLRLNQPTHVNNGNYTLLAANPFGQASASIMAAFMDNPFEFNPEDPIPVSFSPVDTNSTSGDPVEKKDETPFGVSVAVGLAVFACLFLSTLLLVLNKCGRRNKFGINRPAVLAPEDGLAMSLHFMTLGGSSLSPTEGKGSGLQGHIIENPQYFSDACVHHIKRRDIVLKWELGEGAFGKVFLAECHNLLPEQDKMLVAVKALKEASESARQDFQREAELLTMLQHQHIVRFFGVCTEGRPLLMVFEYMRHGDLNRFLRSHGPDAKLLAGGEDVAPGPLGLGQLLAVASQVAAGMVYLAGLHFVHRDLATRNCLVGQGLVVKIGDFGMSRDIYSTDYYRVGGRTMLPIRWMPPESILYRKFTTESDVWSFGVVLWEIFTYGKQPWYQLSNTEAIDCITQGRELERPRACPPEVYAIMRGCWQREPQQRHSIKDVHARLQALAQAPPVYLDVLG
Text: (§4) The TrkA assay Kit is designed to measure TrkA activity for screening and profiling applications using Kinase-Glo® MAX as a detection reagent. The TrkA Assay Kit comes in a convenient 96-well format, with enough purified recombinant TrkA enzyme, TrkA substrate, ATP and kinase assay buffer for 100 enzyme reactions. The method was discussed in details in the ESI.
as §4, with “reactions.” for “reactions. The method was discussed in details in the ESI.”
The assay protocol: all samples and controls should be tested in duplicate. Dissolve 5x Kinase Assay Buffer 1, ATP, and PTK Substrate Poly (Glu:Tyr 4:1) (10 mg/ml). 2). The master mixture (25 μl per well) was prepared by N wells x (6 μl 5x Kinase Assay Buffer 1 + 1 μl ATP (500 μM) + 1 μl PTK Substrate Poly (Glu:Tyr 4:1) (10mg/ml) + 17 μl water). Add 5 μl of Inhibitor solution of each well labeled as “Test Inhibitor”. For the “Positive Control" and “Blank”, add 5 μl of the same solution without inhibitor (Inhibitor buffer). Prepare 3 ml of 1x Kinase assay buffer 1 by mixing 600 μl of 5x Kinase assay buffer 1 with 2400 μl water 3 ml of 1x Kinase assay buffer is sufficient for 100 reactions. To the wells designated as "Blank", add 20 μl of 1x Kinase assay buffer 1and thaw TrkA enzyme on ice. Upon first thaw, briefly spin tube containing enzyme to recover full content of the tube. Calculate the amount of TrkA required for the assay and dilute enzyme to 5 ng/μl with 1x Kinase assay buffer. Store remaining undiluted enzyme in aliquots at -80°C. Then initiate reaction by adding 20 μl of diluted TrkA enzyme to the wells designated “Positive Control” and "Test Inhibitor Control". Incubate at 30°C for 45minutes and thaw Kinase-Glo Max reagent. After the 45 minute reaction, add 50 μl of Kinase-Glo Max reagent to each well. Cover plate with aluminum foil and incubate the plate at room temperature for 15 minutes. Immediately read sample in a luminometer or microtiter-plate capable of reading chemiluminescence. “Blank” value is subtracted from all readings.

IC50 (HCT-116 cell line; Homo sapiens, HCT-116, HCT116, MTT, read-out: IC50 (drug concentration that inhibited 50% of cell proliferation))	melting point	IC50 [1]	Structure (SMILES)	Cytotoxicity at 5 µg/l (HCT-116 cell line)	Cytotoxicity at 10 µg/l (HCT-116 cell line)	Cytotoxicity at 20 µg/l (HCT-116 cell line)	Cytotoxicity at 5 µg/l (HepG2 cell line)	Cytotoxicity at 10 µg/l (HepG2 cell line)	Cytotoxicity at 20 µg/l (HepG2 cell line)	Cytotoxicity at 5 µg/l (MCF7 cell line)	Cytotoxicity at 10 µg/l (MCF7 cell line)	Cytotoxicity at 20 µg/l (MCF7 cell line)
4.07 ng/mL (≈ 0.0115 µM)	260 °C	–	Cc1cc(C)n2nc3c(c2n1)C(=O)NC(=O)C3=Cc1ccc(Cl)cc1 [Compound 7c]	50.56	68.21	68.85	35.08	41.65	67.89	40.12	69.00	92.48
–	330 °C	–	Cc1ccc(NN=C2C(=O)NC(=O)c3c2nn2c(O)cc(C)nc32)cc1 [Compound 16b, 4-Hydroxy-2-methyl-7-(2-(p-tolyl)hydrazono)pyrido[4ʹ,3ʹ:3,4]pyrazolo[1,5-a]pyrimidine-8,10(7H,9H)-dione]	23.18	52.73	85.28	18.01	42.54	50.18	54.13	55.27	80.56
–	> 360 °C	–	Cc1cc(O)n2nc3c(c2n1)C(=O)NC(=O)C3 [Compound 14a, 4-Hydroxy-2-methylpyrido[4ʹ,3ʹ:3,4]pyrazolo[1,5-a]pyrimidine-8,10(7H,9H)-dione]	28.84	55.79	58.72	11.39	40.75	83.75	25.14	48.62	77.19
–	330 °C	–	Cc1cc(C)n2nc3c(c2n1)C(=O)NC(=O)C3 [Compound 4a, 2,4-Dimethylpyrido[4ʹ,3ʹ:3,4]pyrazolo[1,5-a]pyrimidine-8,10(7H,9H)-diones]	56.23	71.78	84.77	15.91	60.95	82.16	35.61	74.99	84.71
–	300 °C	–	Cc1cc(C)n2nc3c(c2n1)C(=O)NC(=O)C3=NNc1ccccc1 [Compound 9a, 2,4-Dimethyl-7-(2-phenylhydrazono)pyrido[4ʹ,3ʹ:3,4]pyrazolo[1,5-a]pyrimidine-8,10(7H,9H)-dione]	34.38	55.47	65.98	13.11	49.16	79.17	36.10	49.11	75.34
–	305 °C	434 nM	COc1ccc(N/N=C2\C(=O)NC(=O)c3c2nn2c(C)cc(C)nc32)cc1 [Compound 9c, 7-(2-(4-Methoxyphenyl)hydrazono)-2,4-dimethylpyrido[4ʹ,3ʹ:3,4]pyrazolo[1,5-a]pyri-midine-8,10(7H,9H)-dione]	59.74	67.13	89.80	42.88	50.63	86.55	38.17	53.72	87.32
